According to patent US10941145B2, “Toll-like receptor 7 (TLR7) agonists having a benzotriazole moiety, conjugates thereof, and methods and uses therefor” (BRISTOL-MYERS SQUIBB COMPANY, priority 2017, dated 2021):

Tests used:
[1] = molecular target: T1, human TLR7 (Homo sapiens, UniProt Q9NYK1); assay: HEK-Blue TLR7 reporter assay (TLR7 agonism); assay type: cell-based; conditions: HEK-Blue TLR7 cells, human TLR7-SEAP reporter, 18 h treatment
T1 construct: host or cells: HEK-Blue TLR7 cells (engineered human embryonic kidney cells)
T1 sequence (Q9NYK1 27-1049): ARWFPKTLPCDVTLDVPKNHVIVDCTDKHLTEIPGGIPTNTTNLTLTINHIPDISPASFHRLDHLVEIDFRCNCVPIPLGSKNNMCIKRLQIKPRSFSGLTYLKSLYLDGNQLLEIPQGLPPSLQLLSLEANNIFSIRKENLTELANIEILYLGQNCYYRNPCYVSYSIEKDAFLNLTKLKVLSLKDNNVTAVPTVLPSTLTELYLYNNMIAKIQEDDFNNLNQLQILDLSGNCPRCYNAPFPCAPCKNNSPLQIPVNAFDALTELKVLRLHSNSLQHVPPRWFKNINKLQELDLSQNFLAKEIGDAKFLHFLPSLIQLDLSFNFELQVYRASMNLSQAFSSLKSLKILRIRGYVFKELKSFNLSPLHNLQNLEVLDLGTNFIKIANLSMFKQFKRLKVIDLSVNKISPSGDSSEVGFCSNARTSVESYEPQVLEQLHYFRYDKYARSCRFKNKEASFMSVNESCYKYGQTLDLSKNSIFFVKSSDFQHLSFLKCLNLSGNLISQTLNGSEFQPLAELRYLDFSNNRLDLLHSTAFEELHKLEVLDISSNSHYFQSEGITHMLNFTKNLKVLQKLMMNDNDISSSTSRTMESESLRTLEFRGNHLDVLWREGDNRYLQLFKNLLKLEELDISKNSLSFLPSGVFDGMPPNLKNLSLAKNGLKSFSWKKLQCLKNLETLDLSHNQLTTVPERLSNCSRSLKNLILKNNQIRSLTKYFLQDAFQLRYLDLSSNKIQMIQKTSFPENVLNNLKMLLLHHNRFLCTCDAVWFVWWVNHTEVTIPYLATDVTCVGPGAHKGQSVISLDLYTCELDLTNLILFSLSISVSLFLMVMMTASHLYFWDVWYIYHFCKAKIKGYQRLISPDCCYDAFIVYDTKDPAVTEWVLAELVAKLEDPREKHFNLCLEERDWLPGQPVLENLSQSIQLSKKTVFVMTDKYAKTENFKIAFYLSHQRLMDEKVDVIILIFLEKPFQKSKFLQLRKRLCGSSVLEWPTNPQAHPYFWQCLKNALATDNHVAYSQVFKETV
Protocol: This example describes a method for assaying TLR7 agonist activity of the compounds disclosed in this specification.
HEK-Blue™ TLR7 cells were added to each well of a 384-well tissue-culture plate (15,000 cells per well) and incubated 16-18 h at 37° C., 5% CO2. Compounds (100 nl) were dispensed into wells containing the HEK-Blue™ TLR cells and the treated cells were incubated at 37° C., 5% CO2. After 18 h treatment ten microliters of freshly-prepared Quanti-Blue™ reagent (Invivogen) was added to each well, incubated for 30 min (37° C., 5% CO2) and SEAP levels measured using an Envision plate reader (OD=620 nm).

[2] = test system: interleukin 6 (IL-6); assay: Interleukin 6 (IL-6) induction in human whole blood; assay type: cell-based; conditions: 37° C., 20 h, AlphaLISA
Protocol: This example describes a method for assaying interleukin 6 induction by compounds disclosed in this specification.
Compounds diluted in DMSO were transferred to individual wells of a Matrix Technologies clear, V-bottom 384-well plate using ECHO acoustic liquid handling technology (25 nL per well). Human whole-blood samples (25 uL) were added to each well using a CyBio FeliX liquid handling instrument. The plate was shaken on a plate shaker for three min before the reaction mixtures at 37° C. for 20 h. Basel RPMI 1640 medium (supplemented with L-glutamine) was then added to each well (25 uL per well) prior to liberating plasma from each sample by centrifugation (450×g, 5 min, ambient temperature). Treated plasma samples (3 uL) were subsequently transferred to individual wells of a white, shallow, 384-well ProxiPlate (Perkin Elmer) using the FeliX liquid handling instrument and their interleukin 6 levels were measured using AlphaLISA technology as described by the manufacturer, PerkinElmer. Data analyses software was used to determine compound EC50 values where the baseline was established using average DMSO values and 100% induction established using reference compound values at the highest concentration tested. EC50's can be determined with software such as Graphpad Prism™.

[3] = test system: IFN-α; conditions: fold less potent than the corresponding purine-8-one compound; cited from earlier work

EC50 [1] [nM] | EC50 [2] [nM] | SMILES | potency less than that of the corresponding purine-8-one compound, as measured by IFN-α induction [3] [×]
24 | 44 | CCCCOc1nc(N)c2nc(O)n(Cc3ccc4c(c3)nnn4CCNCc3ccccc3)c2n1 [Ia-09] | –
4 | 15.3 | CCCCOc1nc(N)c2nc(O)n(Cc3ccc4c(c3)nnn4CCNC3CC3)c2n1 [Ia-04] | –
0.9 | 22.5 | CCCCOc1nc(N)c2nc(O)n(Cc3ccc4c(c3)nnn4CCNC3CCC3)c2n1 [Ia-05] | –
7.2 | 18.2 | CCCCOc1nc(N)c2nc(O)n(Cc3ccc4c(c3)nnn4CCNCc3ccncc3)c2n1 [Ia-10] | –
2.3 | 16.8 | CCCCNCCn1nnc2cc(Cn3c(O)nc4c(N)nc(OCCCC)nc43)ccc21 [Ia-03] | –
113 | – | CCCCOc1nc(N)c2nc(O)n(Cc3ccc4c(c3)nnn4CCNC3CN(C(=O)OC(C)(C)C)C3)c2n1 [Ia-08] | –
26 | 53 | CCCCOc1nc(N)c2nc(O)n(Cc3ccc4c(c3)nnn4CCCl)c2n1 [Ia-02] | –
11 | 56.2 | CCCCOc1nc(N)c2nc(O)n(Cc3ccc4c(c3)nnn4CCNC3COC3)c2n1 [Ia-06] | –
5.4 | 37 | CCCCOc1nc(N)c2nc(O)n(Cc3ccc4c(c3)nnn4CCO)c2n1 [Ia-01] | –
– | – | CCCCOc1nc(N)c2c(n1)N(Cc1cccc(CN3CCCC3)c1)CC(=O)N2 [Vesatolimod, vesatolimod] | 100
2.4 | 19.7 | CCCCOc1nc(N)c2nc(O)n(Cc3ccc4c(c3)nnn4CCNCC3COC3)c2n1 [Ia-07] | –
